The results in this text go back to patent publication US20230392124A1, “METHODS AND COMPOSITIONS FOR IMPROVING SC-BETA CELLS OR ENHANCING THEIR UTILITY” (Washington University, priority 2020, published 2023).

What all share (format): cell-based, human
The subject of one test is SC-beta cells. Nature of the test: Compound treatments during Stage 6 (s6d1-7), insulin secretion. Particulars: treatment during s6d1-7. The text has this: (§1) Other Modifications with Benefits (See e.g., FIG. 90-FIG. 95). • Y and Blebbistatin treatment during stage 4 of differentiation • Reducing volume of media • Wnt modification—IWP2 treatment during s1d2-d4 • bFGF treatment during stage 1 • Betacellulin removal during S5 • Other compound treatments during Stage 6

The test system of test [1] is SC beta cell differentiation. The test is described as follows: Other modifications to the differentiation protocol, differentiation markers. Particulars: for PDX1/NKX61 co expression: treatment during S4.
Excerpt: as §1

A further test relates to SC-β cells. Nature of the test: Refining stage 6 ESFM: components on top of base media, GSIS stimulation index. Particulars: in ESFM, 20 mM; by increasing insulin secretion at low glucose. As to the method: Base Media • MCDB131 • 10% BSA • Glutamax • P/S • Glucose • Zn 10 μM
Treatment on Top of Base Media • 1-Trace A 1:1000 • 2-Trace B 1:1000 • 3-Trace C 1:1000 • 4-Heparin 10 μg/mL • 5-NEAA 1:100 • 6-Vitamin C 250 μM • 7-NaHCO320 mM • 8-Defined Lipid Mixture 1:1000 • 9-Defined Lipid Mixture 1:1000 • 10-Base • 11-S6 w/water dilution 1:100 • 12-S6 no water dilution
All samples had same total dilution of 1:100 with water to maintain same osmolarity amongst samples.

Test [2] concerns stem cells in SC-β cell protocol. The test is described as follows: Cytoskeletal modulating compounds added for first 24 hours of stages of the SC-β cell protocol, gene expression. Particulars: added during stage 1, read at S2d1. As to the method:
Small molecules that influence the state of the cytoskeleton were added for first 24 hours of various stages of the SC-β cell protocol.

The next test deals with WS4^unedit stage 6 cells. The test is described as follows: ER stress study: thapsigargin treatment, static GSIS, real-time PCR and western blot. As to the method:
(§2) For static GSIS, approximately 30 stage 6 clusters were placed in transwells (Corning), equilibrated for 1 hr in 2 mM glucose KRB (TABLE 6), and challenged with sequential 1-hr 2 and 20 mM KRB treatments. For dynamic GSIS, clusters were loaded into a cell chamber, perfused with buffer at 100 μL/min, and equilibrated in 2 mM glucose KRB for 90 min. The samples were then challenged for 12 min at 2 mM, 24 min at 20 mM, and 12 min at 2 mM glucose KRB, collecting effluent every 2-4 min. Human insulin was quantified with ELISA and data normalized to cell counts from Vi-Cell XR or DNA quantification using Quant-iT Picogreen dsDNA assay kit (Invitrogen).
(§3) Detection of phosphorylated and total eIF2α as performed by lysing cells in 1% Triton buffer (20 mM HEPES, pH 7.5, 150 mM NaCl, 1% Triton X-100, 10% glycerol (Sigma), 1 mM EDTA, 10 mM tetrasodium pyrophosphate (Sigma), 17.5 mM β-glycerophosphate (Sigma), PhosSTOP (Roche), and complete protease inhibitor cocktail (Roche). Detection of all other proteins was done by lysing cells in M-PER Mammalian Protein Extraction Reagent (Thermo Scientific) supplemented with cOmplete protease inhibitor cocktail. After 30 min incubation on ice, samples were centrifuged, supernatants collected, and protein-equivalent samples were loaded onto 4-20% Mini-PROTEAN TGX Precast Protein Gels (Bio-Rad) and transferred to an Immobilon-P PVDF Membrane (Millipore). The membrane was treated with 5% skimmed milk for 1 hr at RT and probed with the primary antibodies. The antibodies were detected using HRP-linked secondary antibodies. The density of each band was quantified using Image Lab software (Bio-Rad).
(§4) RNA was extracted with the RNeasy Mini Kit (Qiagen) with DNase treatment (Qiagen), cDNA was synthesized with the High Capacity cDNA Reverse Transcriptase Kit (Applied Biosystems using a thermocycler (Applied Biosystems), real-time PCR reactions were generated with PowerUp SYBR Green Master Mix (Applied Biosystems) using a StepOnePlus (Applied Biosystems), and data analyzed using ΔΔCt methodology. TBP and GUSB were used as normalization genes. Primer sequences used can be found in TABLE 8.
(§5) Cells were incubated for 48 hr with 10 μM Thapsigargin (EMD Chemicals), 30 mM glucose, or a cytokine mix including 500 ng/mL IFNγ (R&D Systems), 500 ng/mL TNFα (R&D Systems), and 100 ng/mL […] (R&D Systems).
(In general: Real-time PCR tracks product formation cycle by cycle.)

The subject of a further test is WS4^corr stage 6 cells. Described as above. As to the method: as §2, §3, §4, §5
For another test, the system named is INS-mCherry+ cells. Nature of the test: mCherry/INS reporter cell line, β cell health. The text has this:
Stage 6 INS+/−mcherry SC-islets can be single cell dispersed, sorted for INS+ SC-β cells, and treated with a SERCA pump inhibitor (thapsigargin) to reduce insulin secretion for high throughput drug screening.

The subject of another test is Stage 6 SC-Beta cells. The test is described as follows: Compounds to improve SC-beta cells: 7 day culture, qPCR of 10 genes. The note with it: 1 μg/mL, 6 days, qPCR vs Control 1. As to the method: Cultured 14 wells of 6-well plates containing Stage 6 SC-Beta cells differentiated in suspension by Punn. Two wells served as controls.
Each well was cultured in one of the following for 7 days*: • […] IFN Gamma • […] TNF Alpha • […] IL-1 Beta • Mixture of the above cytokines • 10% FBS • 10, 1, and 0.1 μM A83-01 • 10, 1, and 0.1 μM Alk5i Ill • 1 μg/mL Lefty A (*cultured for 6 days)
Ran qPCR and compared everything to Control 1 (had smallest Ct SD).

Setting [3] is: 10 μM Thapsigargin, 48 hr, static GSIS, WS4^corr stage 6 cells.

As to `OC[C@H]1OC(O)[C@H](O)[C@@H](O)[C@@H]1O` (stereo partly drawn) [High Glucoses], the insulin secretion entry in the test with SC-beta cells is on record as “increases”. In the case of `C[C@@H](N)[C@H]1CC[C@H](C(=O)Nc2ccncc2)CC1` [Y], the PDX1/NKX61 co expression result in test [1] was “Improves”. On to `Cc1ccc2nc(NC(=O)CSc3nc4c(c(=O)n3-c3ccccc3)SCC4)sc2c1` [IWP2], for which the “PDX1 yield at S3” value in test [1] (during Sd2-d4) was “promotes”. Regarding `Cc1ccc2c(c1)C(=O)C1(O)CCN(c3ccccc3)C1=N2` (stereo not drawn) [Blebbistatin], the PDX1/NKX61 co expression result in test [1] is on record as “Improves”. On to `C=C1[C@@H](C)[C@H]2[C@H](Cc3ccccc3)NC(=O)[C@]23[C@H](OC(C)=O)/C=C/[C@@](C)(O)C(=O)[C@@H](C)C/C=C/[C@H]3[C@@H]1O` [CytoD], for which the insulin secretion entry with SC-beta cells is listed as “increases”.

Regarding `O=C([O-])O.[Na+]` [NAHCO3], the “stimulation index (GSIS)” value in the test on SC-β cells was “reduces stimulation index”.

As for “bFGF: growth factor added during stage 1”, in test [1] (treatment during Stage 1), the differentiation entry is recorded as “improves differentiation”. For `CCCCCCCCCCCCC/C=C/[C@@H](O)[C@@H](N)COP(=O)(O)O` [s1p], the “expression of the mesoderm marker Brachyury T” value in test [2] is recorded as “greatly increases”.

On to `C/C=C(/C)C(=O)O[C@H]1C(C)=C2[C@H]([C@@H]1OC(=O)CCCCCCC)[C@@](C)(OC(C)=O)C[C@H](OC(=O)CCC)[C@@]1(O)[C@H]2OC(=O)[C@@]1(C)O` [thapsigargin], for which, in the test with WS4^unedit stage 6 cells (10 μM Thapsigargin, 48 hr, static GSIS, WS4^unedit stage 6 cells), the insulin secretion entry is on record as “not affected”. Besides, the known stress markers entry in the test with WS4^unedit stage 6 cells (real-time PCR and western blot, bulk stage 6 population, WS4^unedit cells) was “increasing known stress markers”. Besides, in the test on WS4^corr stage 6 cells (setting [3]), the “decrease of insulin secretion” value was 3.9±0.7 × and the glucose-responsiveness result is “eliminating glucose-responsiveness”. Besides, the known stress markers entry in the test with WS4^corr stage 6 cells (real-time PCR and western blot, bulk stage 6 population, WS4^corr cells) was “increasing known stress markers”. Further, in the test on INS-mCherry+ cells, the De-differentiation signatures result is given as “De-differentiation signatures occur” and the “mCherry fluorescence (insulin expression)” value was “reduces mCherry fluorescence”.

B1: BC: Betacellulin, stage 5 factor (protein, UniProt P35070 32-111, looked up)
Betacellulin: DGNSTRSPETNGLLCGDPEENCAATTTQSKRKGHFSRCPKQYKHYCIKGRCRFVVAEQTPSCVCDEGYIGARCERVDLFY
modifications: Betacellulin
notes: Betacellulin, stage 5 factor
For B1, in test [1] (removal during S5), the “requirement for Beta cell induction” value is given as “not required”.

B2: Lefty A: factor added to stage 6 culture at 1 μg/mL (protein, UniProt O00292 77-366, looked up)
Left-right determination …: RFSQSFREVAGRFLASEASTHLLVFGMEQRLPPNSELVQAVLRLFQEPVPKAALHRHGRLSPRSAQARVTVEWLRVRDDGSNRTSLIDSRLVSVHESGWKAFDVTEAVNFWQQLSRPRQPLLLQVSVQREHLGPLASGAHKLVRFASQGAPAGLGEPQLELHTLDLRDYGAQGDCDPEAPMTEGTRCCRQEMYIDLQGMKWAKNWVLEPPGFLAYECVGTCQQPPEALAFNWPFLGPRQCIASETASLPMIVSIKEGGRTRPQVVSLPNMRVQKCSCASDGALVPRRLQP
As to B2, in the test on Stage 6 SC-Beta cells, the NKX6-1 expression entry is recorded as “slightly decreased” and the “genes with increased expression (IAPP, SIX2, CHGA, SIX3, G6PC2, MAF B)” value is given as 6/10.
